{"source": "patent US7601717B2", "about": "“Pterin analogs” (BioMarin Pharmaceutical Inc., priority 2008, dated 2009)", "key": {"[1]": {"system": "human umbilical vein endothelial cells (HUVEC)", "experiment": "Nitric oxide production (nitrite+nitrate) in NAS-treated HUVEC", "format": "cell-based", "conditions": "5-22 hours treatment", "procedure": "Cultured human umbilical vein endothelial cells (HUVEC) were pretreated with 3 mM N-acetylserotonin (NAS), an inhibitor of the enzyme sepiapterin reductase. Inhibition of this pathway typically results in loss of endogenous BH4, depressing the endogenous eNOS activity far below normal and provides an assay to test for restoration of eNOS activity.\nThus, subconfluent HUVECs were seeded in a 24-well plate and grown overnight in EGM2 medium (full growth medium). The next morning, fresh medium was added to the cells (300 μL/well), 3 mM N-acetylserotonin (NAS), an inhibitor of the enzyme sepiapterin reductase (a member of the synthesis pathway for endogenous BH4) was added to the cells to decrease the endogenous BH4 levels. After an incubation of 1.5 hours, 50, 100, or […] BH4 or compound of Example 5, Example 6, Example 7, or Example 9 were added to the cells. The cells were allowed to react with the BH4 or the compound of Example 5, Example 7, or Example 9 for 5-22 hours. The production of NO was then measured as changes in total (nitrite+nitrate) by the Griess reaction subsequent to nitrate reductase treatment. 90 μL of reaction mixture (25 mM Tris-HCL, pH7.4, 1 μM FAD, 1 μM FMN, 100 μM L-Arginin 2.5 mM CaCl2, 1 mM NADPH, 0.04 mg/ml Calmodulin) was mixed with 5 μl of eNOS (15 units/ml) and 5 μl of BH4 or BH4 analogs (1, 10, 100 μM), followed by incubation in a 37° C. water bath for 90 minutes. Then 100 μl of water and 20 μl of the nitrite fluorescent probe DAN (2,3-diaminonaphthalene, 316 μM) were added to each reaction and incubated at room temperature for 10 minutes. The dye DAN reacts with nitrite to yield the fluorescent product naphthotriazole. The reaction was then stopped by adding 10 μl of NaOH (2.8 M), and the fluorescence of the samples was read using excitation frequency 375 nm and emission frequency 415 nm. The percentage of nitrite+nitrate with BH4 or compound of Example 5, Example 7, or Example 9 is shown in FIG. 17 (after 5 hours); FIG. 18 (after 17 hours); and FIG. 19 (after 22 hours). The results for Example 6 are shown in FIG. 20 (after 5 hours) and FIG. 21 (after 20 hours)."}, "eNOS": {"target": "eNOS (Homo sapiens, UniProt P29474)", "experiment": "Cell-free eNOS activity assay reconstituted from purified components", "format": "biochemical", "conditions": "1, 10, 100 μM, 90 minutes at 37° C., nitrite by DAN fluorescence", "procedure": "Also tested was the effect of BH4 analogs compared to free BH4 on stimulation of eNOS activity in a cell-free assay system reconstituted from purified components. 90 μL of reaction mixture (25 mM Tris-HCL, pH7.4, 1 μM FAD, 1 μM FMN, 100 μM L-Arginine, 2.5 mM CaCl2, 1 mM NADPH, 0.04 mg/ml Calmodulin) was mixed with 5 μl of eNOS (15 units/ml) and 5 μl of BH4 or BH4 analogs (1, 10, 100 μM), followed by incubation in a 37° C. water bath for 90 minutes. Then 100 μl of water and 20 μl of the nitrite fluorescent probe DAN (2,3-diaminonaphthalene, 316 μM) were added to each reaction and incubated at room temperature for 10 minutes. The dye DAN reacts with nitrite to yield the fluorescent product naphthotriazole. The reaction was then stopped by adding 10 μl of NaOH (2.8 M), and the fluorescence of the samples was read using excitation frequency 375 nm and emission frequency 415 nm."}, "[2]": {"system": "Spontaneously Hypertensive rats (SHR)", "experiment": "Anti-hypertensive effect, tail-cuff systolic blood pressure in SHR", "format": "in vivo, rat", "conditions": "SHR; for decrease in systolic blood pressure (SBP): 3 weeks", "procedure": "This study was to determine if the BH4 analogs have a similar hypotensive effect and to determine the steady state pharmacokinetics (PK) profiles of plasma BH4 concentrations.\nMale Wistar-Kyoto (WKY) rats and SHR rats (Elevage Janvier, France, 7 weeks old) were housed seven days prior to the beginning of experiments with free access to standard chow and water and maintained on an inversed 12 h dark/light cycle (10:00/22:00). After a one week acclimation period, the animals were trained to the tail-cuff system during one week (3 sessions). The following week, two baseline measurements of blood pressure were performed.\nThe rats (10 weeks old) then received respective treatments of water, vehicle, 2, 10, or 30 mg/kg/day of BH4 analog (Example 5, Val-BH4) or 100 mg/kg/day BH4 by oral gavage (8 mL/kg, dissolved in 100 μM ascorbic acid) performed once a day during 21 days of treatment. The doses of BH4 analog were prepared as mg/kg equivalents of BH4 (calculated using BH4 and BH4 analog 2HCl molecular weights). Body weight was monitored 3 times per week and the most recent body weight was used to adjust drug and vehicle daily intake. Seven experimental groups of rats were evaluated: Group 1—normotensive WKY rats and water gavage; Group 2—hypertensive SHR rats and water gavage; Group 3—hypertensive SHR rats and vehicle gavage; Group 4—hypertensive SHR rats and BH4 100 mg/kg/day gavage; Group 5—hypertensive SHR rats and BH4 analog 2 mg/kg/day gavage; Group 6—hypertensive SHR rats and BH4 analog 10 mg/kg/day gavage; Group 7—hypertensive SHR rats and 30 mg/kg/day BH4 analog gavage. To account for animal loss or animal disqualification during experimental handling, 10 rats were used in each group, with the expectation to obtain interpretable results for at least 8. Systolic blood pressure (SBP) and heart rate (HR) were measured twice weekly during the 3-week treatment period.\nSystolic blood pressure (SBP) and heart rate (HR) were measured using the tail-cuff method, twice before the beginning of the treatment and twice weekly during the 3 week treatment period (6 measurements during the treatment period). Rats were placed in a plastic restraint and warmed to […]. A pneumatic pulse sensor was attached to the tail. After cuff inflation, SBP was measured and HR was determined by counting pulse numbers per minute. Data for each rat was taken an average of at least 4 stable readings. At least 10 cuff inflations were performed for each BP measurement."}, "[3]": {"experiment": "Pharmacokinetics and bioavailability, single intravenous or oral doses, partial Latin square crossover", "format": "in vivo, male cynomolgus monkeys", "conditions": "male, cynomolgus monkey, plasma; intravenous; title 5 mg/kg, text 2 mg/kg; n=6"}}, "note": "Where a name gives a salt, the structure may show the parent alone.", "data": [{"smiles": "CC(C)[C@H](N)C(=O)O[C@@H](C)[C@H](O)[C@H]1CNc2nc(N)[nH]c(=O)c2N1", "note": "[Example 5, 2-Amino-3-methyl-butyric acid 2-(2-amino-4-oxo-3,4,5,6,7,8-hexahydro-pteridin-6-yl)-2-hydroxy-1-methyl-ethyl ester dihydrochloride]", "values": [{"measurement": "NO production (nitrite+nitrate)", "setting": "[1]", "value": "increased NO production in a dose-dependent manner"}, {"measurement": "potentiation of eNOS activity", "setting": "eNOS", "value": "did not significantly potentiate eNOS activity"}, {"measurement": "decrease in systolic blood pressure (SBP)", "setting": "[2]; 2 mg/kg/day oral gavage (BH4 equivalents)", "value": 6.8, "unit": "mmHg"}, {"measurement": "decrease in SBP compared with BH4 100 mg/kg", "setting": "[2]; 10 mg/kg/day during 3 weeks, FIG. 31", "value": "decreased SBP to the same extent as a 10-fold greater dose of BH4"}, {"measurement": "decrease in systolic blood pressure (SBP)", "setting": "[2]; 10 mg/kg/day oral gavage (BH4 equivalents)", "value": 13.9, "unit": "mmHg"}, {"measurement": "decrease in systolic blood pressure (SBP)", "setting": "[2]; 30 mg/kg/day oral gavage (BH4 equivalents)", "value": 13.7, "unit": "mmHg"}, {"measurement": "AUC(0-inf)", "setting": "[3]", "value": 5.24, "unit": "µM·h"}, {"measurement": "AUC(0-t)", "setting": "[3]", "value": 4.17, "unit": "µM·h"}, {"measurement": "Cmax", "setting": "[3]", "value": 13.1, "unit": "µM"}, {"measurement": "Tmax", "setting": "[3]", "value": 4.8, "unit": "min"}]}]}
